How the values were obtained:
[1] = test system: T. cruzi Tulahuen trypomastigotes; test: T. cruzi trypomastigote assay (Cell Titer-Glo viability, ATP luminescence); format: cell-based, Trypanosoma cruzi; settings: for Trypomastigotes pIC50 48 hours: 48 hours incubation; for Trypomastigotes pIC50 48 hours / Trypomastigotes pIC50 72 hours: pIC50 = -log10 IC50 in molar units; for Trypomastigotes pIC50 72 hours: 72 hours incubation; for 72 pIC50 (trypomastigotes, raw data of Fig 1D): 72 hours, plotted values, censored values given without sign; for 48 pIC50 / 72 pIC50: trypomastigote assay; for 48 pIC50: 48 h; for 72 pIC50: 72 h
Outline: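 Compounds were tested in dose response or once at a final 5 μM against 5 × 10^4 trypomastigotes per well (DMEM, 2% FBS), collected on days 5–8 from LLC-MK2 infected cultures. ATP luminescence via CellTiter-Glo reports live parasites; DMSO defines 0% and cell-free wells 100% effect.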

[2] = test system: H9c2 (rat cardiomyocytes); test: RoK assay, number of host cells nuclei (drug-related cytotoxicity, H9c2 output, Cmin_Tox); settings: H9c2 host cells
Outline: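 Host-cell toxicity is read as DRAQ5-stained nuclei counts from automated confocal imaging of T. cruzi-infected H9c2 cells, tracked across time at each concentration. Cmin_Tox denotes the lowest compound concentration dropping host cell number under 50% of initial cell density.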

TcCYP51 = settings: formerly reported; cited from earlier work

| Compound | Trypomastigotes pIC50 48 hours [1] | Trypomastigotes pIC50 72 hours [1] | 72 pIC50 (trypomastigotes, raw data of Fig 1D) [1] | 48 pIC50 ([1]; figure 1A) | 72 pIC50 ([1]; figure 1A) | 72 pIC50 ([1]; figure 1B) | Cmin_Tox [2] [µM] | CYP51 pIC50 (TcCYP51) |
| --- | --- | --- | --- | --- | --- | --- | --- | --- |
| O=C(NCCc1cccnc1)c1ccc(-c2ccccc2F)o1 [TCMDC-143190] | < 4.3 | < 4.3 | < 4.3 | < 4.3 | < 4.3 | < 4.3 | >50 | 7.2 |
| O=C(NCCc1ccccc1Cl)c1cccn1-c1cccnc1 [TCMDC-143253] | < 4.3 | < 4.3 | < 4.3 | < 4.3 | < 4.3 | < 4.3 | >50 | 7.1 |
| COc1ccc(S(=O)(=O)NC(C)C)cc1Nc1ncc(-c2cccc(F)c2)cn1 [TCMDC-143248] | < 4.3 | < 4.3 | < 4.3 | < 4.3 | < 4.3 | < 4.3 | >50 | < 4 |
| Cc1cccnc1CN1CCN(CCCOc2ccc(-c3ccc(C(N)=O)cc3)cc2)CC1 [TCMDC-143291] | 4.8 | 4.4 |  |  |  |  | >50 | < 4 |
| Cn1nccc1-c1cc(OC(CN)c2ccccc2)cnc1-c1ccco1.O=C(O)C(F)(F)F.O=C(O)C(F)(F)F (stereo not drawn) [TCMDC-143221] | 4.4 | < 4.3 |  |  |  |  | >50 | 7.2 |
| COc1ccc(C(C)N(C)c2ncc3c(N)nc(N)nc3n2)cc1F (stereo not drawn) [TCMDC-143298] | 6.5 | 6.7 |  |  |  |  | >50 | < 4 |
| O=C(NCC1CCCCC1)c1cc(=O)c2ccccc2o1 [TCMDC-123621] | 5 | 5 | 5 | 5 | 5 | 5 | 50.0 | < 4 |
| O=S(=O)(c1cccc(CSc2nnc(-c3ccc4c(c3)OCO4)o2)c1)N1CCOCC1 [TCMDC-143197] | < 4.3 | < 4.3 | < 4.3 | < 4.3 | < 4.3 | < 4.3 | >50 | 4.9 |
| Cl.O=c1cc(NCCCNC2CCOc3c(I)cc(Cl)cc32)[nH]c2ccccc12 (stereo not drawn) [TCMDC-139489] | 5.8 | 6 |  |  |  |  | 50.0 | 4.8 |
| COc1ccc(S(=O)(=O)Nc2ccccc2OC)cc1NC(=O)CCCc1c[nH]c2ccccc12 [TCMDC-143256] | 5 | 4.9 |  |  |  |  | >50 | < 4 |
| O=C(NCc1ccncc1)c1ccccc1N1CCCN(C(=O)Cc2ccc(F)c(F)c2)CC1.O=C(O)C(F)(F)F.O=C(O)C(F)(F)F [TCMDC-143300] | < 4.3 | < 4.3 | < 4.3 | < 4.3 | < 4.3 | < 4.3 | >50 | 7.1 |
| COc1ccc2c(Cl)c(C(=O)N3CCC3)sc2c1Cl [TCMDC-143262] | 6.2 | 6.4 |  |  |  |  | >50 | < 4 |
| COc1cc(NC(=O)Nc2cccc(CNC(=O)OC3CCCCC3)c2)ccc1-c1cnco1 [TCMDC-143376] |  | 4.9 |  |  |  |  | 16.7 | 4.6 |
| O=C(NCCc1cccnc1)c1csc(-c2ccccc2)n1 [TCMDC-143203] | < 4.3 | < 4.3 | < 4.3 | < 4.3 | < 4.3 | < 4.3 | >50 | 7.2 |
| COc1ccc(NS(=O)(=O)c2cc(-c3cc(C)[nH]n3)ccc2C)cc1OC [TCMDC-143194] | 4.7 | 5.2 |  |  |  |  | 18.5 | 4.4 |
| CCN(C)Cc1ccc(N2CCC(NS(=O)(=O)c3ccc4c(c3)CCO4)CC2)nc1 [TCMDC-143244] | < 4.3 | < 4.3 | < 4.3 | < 4.3 | < 4.3 | < 4.3 | >50 | < 4 |
| COc1ccc(NS(=O)(=O)c2cc(NC(=O)Cc3ccc(C)cc3)ccc2N2CCOCC2)cc1 [TCMDC-143313] | 5.9 | 6.3 |  |  |  |  | 0.6 | < 4 |
| COc1ccc(C(C)(C)C)cc1S(=O)(=O)n1ccnc1 [TCMDC-143275] | < 4.3 | < 4.3 | < 4.3 | < 4.3 | < 4.3 | < 4.3 | >50 | 8.1 |
| CS(=O)(=O)c1ccc(CC(=O)Nc2nc(-c3ccc(Cl)s3)cs2)cc1 [TCMDC-143224] | < 4.3 | < 4.3 | < 4.3 | < 4.3 | < 4.3 | < 4.3 | >50 | < 4 |
| CCC(=O)Nc1ccc(C(=O)Nc2ccccc2-c2ccccc2)cc1 [TCMDC-143286] | 5.9 | 6 |  |  |  |  | >50 | < 4 |
| FC(F)(F)c1cc(C2CCCN(Cc3c[nH]c4ccccc34)C2)nc2ncnn12.O=C(O)C(O)C(O)C(=O)O (stereo not drawn) [TCMDC-143311] | 4.9 | 5.2 |  |  |  |  | >50 |  |
| Cc1cccc(N2CCCN(Cc3c[nH]c4ccccc34)CC2)n1 [TCMDC-143185] | 6.7 |  |  |  |  |  | 5.6 | < 4 |
| COc1ccc(C(=O)Nc2cc(C(F)(F)F)ccc2N2CCOCC2)c(OC)c1 [TCMDC-143310] | 5.8 | 6 |  |  |  |  | >50 | < 4 |
| CS(=O)(=O)NC1CCC(Oc2cc3cnccc3cc2-c2ccsc2)CC1.O=C(O)C(F)(F)F (stereo not drawn) [TCMDC-143302] | 4.5 | < 4.3 |  |  |  |  | >50 | 7.6 |
| CCCn1c(NC(=O)Cc2ccc(Cl)cc2)nc2ccccc21 [TCMDC-143279] | 5.9 | 6 |  |  |  |  | >50 | < 4 |
| CC(=O)Nc1nc(-c2cc(C)ccc2C)c(C)s1 [TCMDC-143207] | < 4.3 | < 4.3 | < 4.3 | < 4.3 | < 4.3 | < 4.3 | >50 | < 4 |
| CC1CN(S(=O)(=O)c2ccc(NC(=O)c3cc(C4CC4)nc4c3cnn4C(C)C)cc2)CC(C)O1 (stereo not drawn) [TCMDC-143200] | 5.3 | 4.8 |  |  |  |  | >50 | < 4 |
| Cc1c(C(=O)NCCCCn2ccnc2)oc2c(C)cccc12 [TCMDC-143304] | < 4.3 | < 4.3 | < 4.3 | < 4.3 | < 4.3 | < 4.3 | >50 | 7 |
| O=C(O)C(F)(F)F.O=c1ccc2ccc(F)c3c2n1C[C@H]3CN1CCC(NCc2cc3ccccc3o2)CC1 [TCMDC-143301] | 4.5 | 4.4 |  |  |  |  | >50 | 4.5 |
| CCN(CC)S(=O)(=O)c1ccc(C(=O)Nc2cc(C)nn2-c2nc(C)c(C)c(=O)[nH]2)cc1 [TCMDC-143273] | 6.2 | 6.3 |  |  |  |  | >50 | < 4 |

Reference: article PMC8318231, “Rate-of-Kill (RoK) assays to triage large compound sets for Chagas disease drug discovery: Application to GSK Chagas Box” (PLoS Neglected Tropical Diseases, 2021)
